For one series, the system named is zebrafish embryos. In words: In vivo cardiotoxicity in zebrafish embryos. The note with it: treated 2 to 3 dpf; CYS 20 µM; terfenadine 10, 20 µM. On the procedure: (§1) Handling of adult zebrafish and experiments with zebrafish embryos were performed in accordance with the EU directive 2010/63/EU and the German Animal Welfare Act (§11 Abs. 1 TierSchG). An automatic aquatic eco-system (PENTAIR, Apoka, UK) was used for zebrafish housing. Adult zebrafish were mated pairwise in our zebrafish facility after one night in the mating cages (light/dark cycle: 14 h/10 h). The eggs were collected after 2 h of mating and placed in a petri dish with fish water (pH 7.36 ± 0.08, conductivity: 800 ± 50 µs). The eggs were washed with 0.3x Danieau´s medium (17 mM NaCl, 0.2 mM KCl, 0.12 mM MgSO4, 0.18 mM Ca(NO3)2, 1.5 mM HEPES, pH 7.1–7.3, and 1.2 µM methylene blue). 300 eggs were placed per Petri dish and stored in the incubator at 28 °C overnight. 24 h post-mating, the unfertilized eggs were discarded. The 0.3x Danieau´s media in the petri dishes was replaced every 24 h and embryos with developmental issues were euthanized using ice water. […]
Embryos were prepared as described above. […] Afterwards, embryos were anesthetized with tricaine added to the media (40 µg/mL, 0.004% (w/v)) and videos were recorded using a stereomicroscope (1.25 × magnification) (Stemi 508, Zeiss) with Media Recorder (version 4.0) and analyzed via DanioScope software (version 1.2.208, Noldus). […]

Series [1] concerns CHO-K1 cells. In words: Micronucleus test. The conditions noted are these: 24 h; mitomycin C 0.05 µM, doxorubicin 0.05 µM, etoposide 0.25 µM; CYS 20 µM, 100 µM for Cysto-180.
From the text: (§12) Subsequently, cells were washed three times with PBS and imaged using Celldiscoverer 7 (Zeiss).
The test system of the next series is HEK293 (human, kidney). In words: MTT cytotoxicity HEK293. The series is classed as cell-based. On the procedure: (§2) All cell types were cultivated at 37 °C with 5% CO2. HepG2, HEK293, HCT116, CHO-K1, HeLa-CCL-2 and Huh-7.5 were purchased from ATCC. The respective cell media (Gibco) were supplemented with 10% FBS (Gibco) before usage. Cells were used between passages #5 and #30. To obtain biological repeats, cells were split separately for at least two passages.
(§3) Cells were washed with PBS and 0.5 mL trypsin was added. Afterwards, cells were incubated for 5 min before adding 10 mL medium containing 10% FBS. Per well, 120 µL cell suspension (5 × 10^4 cells/mL) was seeded in transparent 96-well cell bind plates and incubated for 2 h (37 °C, 5% CO2). A dilution series (1:3) of test compounds was prepared in respective media containing 10% FBS and added (60 µL) to the prepared cell plate. Cells were incubated for a further 72 h (37 °C, 5% CO2). Next, 20 µL MTT (5 mg/mL in PBS) was added to each well and incubated for 2 h (37 °C, 5% CO2). The wells were emptied and 100 µL isopropanol/10 N HCl (1000:4) per well was added.
(§4) The plates were analyzed by measuring the absorbance at 570 nm (plate reader Infinite® 200 Pro, Tecan). After normalization of data to the respective solvent controls, the calculated percentage of growth inhibition was plotted using GraphPad Prism software (version 10.0.2).

Series [2] relates to CHO-K1 cells.
From the text: as §12
The next series relates to CHO-K1 (hamster, ovary). In words: MTT cytotoxicity CHO-K1. The conditions noted are these: CHO-K1, 72 h, n = 3. The series is classed as cell-based. The protocol:
as §2, §3, §4

A further series relates to HepG2 (human, liver). In words: MTT cytotoxicity HepG2. The series is classed as cell-based. The conditions noted are these: 72 h, n = 3. The protocol: as §2, §3, §4
Another series relates to HCT116 (human, colon). In words: MTT cytotoxicity HCT116. The series is classed as cell-based. The note with it: HCT-116, 72 h, n = 3. The protocol: as §2, §3, §4
Another series relates to E. coli gyrase. The conditions noted are these: cited from earlier work.
A short description of series [3]: Metabolic stability in mouse hepatocytes. The note with it: mouse, pooled mouse hepatocytes; 1 μM, 0.25 × 10^6 cells/mL; read-out: Mouse Hepatocytes t1/2. The series is classed as in vitro ADME. On the procedure:
For the evaluation of combined phase I and phase II metabolic stability, the compound (1 μM) was incubated with 0.25 × 10^6 cells/mL of pooled mouse hepatocytes (Xenotech, Kansas City, USA). Cells were thawed in Leibovitz’s L-15 medium without phenol red (ThermoFisher Scientific, Waltham, USA). Briefly, cells were transferred into 50 mL of medium, followed by centrifugation at 55 g for 6 min. Supernatant was discarded, and the cell count was determined after gently resuspending the cell pellet in 1mL of medium. Hepatocytes were diluted to 0.5 × 10^6 cells/mL and incubated at 37 °C, 700 rpm for 10 min, to achieve the desired final cell count after addition of an equal volume of test compounds in medium, leading to a final test concentration of 1 µM at 1% DMSO. […] For the determination of metabolism in the presence of cobicistat, this drug was added together with test compounds in the desired concentration range. The metabolic stability of testosterone, verapamil, ketoconazole and 7-hydroxycoumarine were determined in parallel to confirm the enzymatic activity of mouse hepatocytes. […] Concentration of the remaining test compound at the different time points was analyzed by HPLC-MS/MS (Vanquish Flex coupled to a TSQ Altis Plus, Thermo Fisher, Dreieich, Germany) and used to determine half-life (t1/2). Intrinsic clearance was calculated as follows:2 CLintµL/min×10^6cells=Incubation volumeµL×ln(2)/Cells in incubation mixture[10^6]×t1/2
For metabolite identification studies, test compounds were incubated at 10 µM final concentration and samples were analyzed using HPLC-HRMS (Ultimate 3000 coupled to a Q Exactive Focus, Thermo Fisher, Dreieich, Germany). […] Blank samples using DMSO were run in parallel for background subtraction. Sample processing for metabolite identification was performed using Compound Discoverer 3.2 (Thermo Fisher, Dreieich, Germany). Metabolites were identified based on mass shifts and feasibility of the metabolic reaction, also in view of MS peak intensities over time.

The test system of a further series is HeLa (human, cervix). In words: MTT cytotoxicity HeLa. The series is classed as cell-based. The conditions noted are these: 72 h, n = 3. On the procedure: as §2, §3, §4
A further series relates to U-2 OS cells. In words: Mitochondrial superoxide formation (MitoSOX Red). The series is classed as cell-based, human. The conditions noted are these: n = 6. The protocol:
CYS was tested for its potential to induce oxidative stress in U-2 OS cells. Therefore, 120 µL of a cell suspension in McCoy’s (+10% FBS) containing 5 × 10^4 cells/mL were seeded into black 96-well imaging plate (BD Falcon). The plates were incubated for two days (37 °C, 5% CO2) until the cells reached approximately 70% confluence. Subsequently, the cells were washed with HBSS buffer, prior to adding CYS (20 µM) and the ROS inducer menadione (50 µM) as positive control, along with the staining solution (HBSS, calcium, magnesium, 5 µM MitoSOX red and 10 µg/mL Hoechst (Thermo)). To check for ROS protective properties, menadione (50 µM) was added directly to the staining solution. […] Afterwards, the cells were washed twice with HBSS. The cells were imaged using an automated fluorescence microscope (Celldiscoverer 7, Zeiss) (excitation: […]) to analyze the fluorescence intensity of the superoxide tracker MitoSOX red. The experiment was carried out with six replicates per condition. Quantification was done by high-content image analysis using the ZEN software (version 3.4, blue edition, Zeiss). Data presentation was done using GraphPad Prism (version 10.0.3) with ordinary one-way ANOVA including multiple comparisons to the control group for statistical analysis of the sample without ROS induction via menadione in the staining solution. Multiple unpaired t test was used to compare samples for ROS protective properties, which were incubated with menadione in the staining solution.

In series [4] the test system is U2OS (human, osteosarcoma). In words: MTT cytotoxicity U2OS. The series is classed as cell-based. The conditions noted are these: 72 h, n = 3. The protocol: as §3, §4
The subject of a further series is Huh-7.5 (human, liver). In words: MTT cytotoxicity Huh-7.5. The series is classed as cell-based. The conditions noted are these: Huh7.5, 72 h, n = 3. The protocol: as §2, §3, §4
For series [5], the system named is zebrafish embryos [Tg(fabp10a:DsRed; elaA:EGFP)]. In words: In vivo hepatotoxicity in zebrafish embryos. The note with it: soaking 3 to 5 dpf; valproic acid 20, 40 µg/mL. On the procedure: as §1, with “overnight.” for “overnight. 24 h post-mating, the unfertilized eggs were discarded. The 0.3x Danieau´s media in the petri dishes was replaced every 24 h and embryos with developmental issues were euthanized using ice water.”
Zebrafish embryos [Tg(fabp10a:DsRed; elaA:EGFP)] were prepared as described above. […] After 48 h treatment, the embryos were checked via a fluorescence stereomicroscope (M205 FA, Leica) with attention to liver degeneration. Fluorescence images were taken after anesthetizing the embryos with tricaine (40 µg/mL) and placing them laterally (excitation: 558 nm, emission 583 nm, 35× magnification). […] The liver size was calculated using ImageJ software (format: 8 bit, threshold: 40–255, binary, particle size: 10.0-infinite). […] The relative liver sizes of treated embryos were calculated accordingly and normalized to the control group. […]

Usually IC50 stands for the concentration needed to halve the response being measured.

Like-named read-outs stand apart in the source and are kept apart here.

Take `CC(C)(C)c1ccc(C(O)CCCN2CCC(C(O)(c3ccccc3)c3ccccc3)CC2)cc1` (centres unmarked) [terfenadine]: in the series on zebrafish embryos, the heartbeat rate entry is “significant and concentration-dependent decrease of beats per minute”; the pericardial area entry is given as “significant, concentration-dependent increase in pericardial area”.

As to `CO[C@@]12[C@H](COC(N)=O)C3=C(C(=O)C(C)=C(N)C3=O)N1C[C@@H]1N[C@@H]12` [mitomycin C], in the series with CHO-K1 cells [1], the micronuclei/nuclear bud formation entry is “high amount of nuclear bud/micronuclei formation”.

For the molecule `COc1cccc2c1C(=O)c1c(O)c3c(c(O)c1C2=O)C[C@@](O)(C(=O)CO)C[C@@H]3O[C@H]1C[C@H](N)[C@H](O)[C@H](C)O1` [Doxorubicin, doxorubicin, reference compound], the half-maximal inhibitory concentration (IC50) was 160 ± 40 nM in the series with HEK293 (human, kidney) (HEK293, MTT, 72 h, n = 3, read-out: IC50 HEK293 (human, kidney)); 100 ± 10 nM with CHO-K1 (hamster, ovary); 480 ± 130 nM with HepG2 (human, liver); 240 ± 20 nM in the series on HCT116 (human, colon). In the series on CHO-K1 cells [2], the micronuclei/nuclear bud formation result is recorded as “high amount of nuclear bud/micronuclei formation”.

On to `CC(C)Oc1c(NC(=O)c2ccc(NC(=O)[C@H](CC(N)=O)NC(=O)c3ccc(NC(=O)c4ccc(C#N)cc4)cc3)cc2)ccc(C(=O)Nc2ccc(C(=O)O)cc2)c1O` [CN-DM-861], for which the IC50 was […] in the series on E. coli gyrase; > 20000 nM in the series on HEK293 (human, kidney) (HEK293, 72 h, read-out: IC50 HEK293 (human, kidney)); > 37000 nM in the series with HeLa (human, cervix); > 20000 nM with CHO-K1 (hamster, ovary); > 20000 nM with HepG2 (human, liver); > 20000 nM in [4]. Further, the IC50 in the series on Huh-7.5 (human, liver) is > 20000 nM; with HCT116 (human, colon) it was > 20000 nM. For the same molecule, in series [3], the half-life at 1 µM was 1.57 ± 0.25 h. For the same molecule, the “basal superoxide radical levels vs DMSO control” value in the series with U-2 OS cells (20 µM, MitoSOX Red, no menadione) is recorded as “no ROS induction at the maximum soluble concentration”. Moreover, the “menadione-induced superoxide formation on co-treatment” value in the series on U-2 OS cells (CYS 20 µM + menadione 50 µM) is “no significant increase of superoxide”.

On to `CCCC(CCC)C(=O)O` [Valproic acid, valproic acid], for which the liver size result in [5] was “significant liver size reduction”.

Values taken from paper PMC13267113 (npj Drug Discovery, 2025).
